Earlier results, collected in patent US20260256792A1, “TREATMENT OF CHRONIC SPONTANEOUS URTICARIA BY ADMINISTERING (R)-2-[3-[4-AMINO-3-(2-FLUORO-4-PHENOXY-PHENYL)PYRAZOLO[3,4-D]PYRIMIDIN-1-YL]PIPERIDINE-1-CARBONYL]-4-METHYL-4-[4-(OXETAN-3-YL)PIPERAZIN-1-YL]PENT-2-ENENITRILE” (priority 2023, published 2026).

Experiments:
[1] = system: fetal development or male fertility; settings: preclinical; cited from earlier work
healthy volunteers = settings: cited from earlier work
CYP3A = settings: cited from earlier work

CC(C)(C=C(C#N)C(=O)N1CCC[C@@H](n2nc(-c3ccc(Oc4ccccc4)cc3F)c3c(N)ncnc32)C1)N1CCN(C2COC2)CC1 [rilzabrutinib, (R)-2-[3-[4-amino-3-(2-fluoro-4-phenoxy-phenyl)pyrazolo[3,4-d]pyrimidin-1-yl]piperidine-1-carbonyl]-4-methyl-4-[4-(oxetan-3-yl)piperazin-1-yl]pent-2-enenitrile]
reproductive toxicity [1]: not expected to harm fetal development or male fertility
most commonly reported adverse events (healthy volunteers): gastrointestinal adverse events, including nausea/vomiting and diarrhea
serious adverse events or deaths (healthy volunteers): No serious adverse events or deaths
CYP3A inhibition (CYP3A): mild inhibitor
